Experimental findings from patent publication US11149033B2, “Heteroaryl compound, enantiomer, diastereomer or pharmaceutically acceptable salt thereof, and antiviral composition containing same as active ingredient” (priority 2016, dated 2021) are described below.

By melting point is commonly meant the temperature, or range, at which the solid turns liquid.

Like-named read-outs stand apart in the source and are kept apart here.

In one series the test system is B/Florida/04/2006. Nature of the series: Antiviral activity (drug efficacy evaluation by concentration) against B/Florida/04/2006. It counts as cell-based, B type influenza virus.
The subject of series [1] is A/California/07/2009 (H1N1). The series is described as follows: Antiviral activity (drug efficacy evaluation by concentration) against A/California/07/2009 (H1N1). It counts as cell-based, A type influenza virus. The note with it: Influenza A virus.
The test system of the next series is A/Perth/16/2009 (H3N2). The series is described as follows: Antiviral activity (drug efficacy evaluation by concentration) against A/Perth/16/2009 (H3N2). It counts as cell-based, A type influenza virus. The note with it: Influenza A virus.
The mark [2] stands for this setting: CC50, third EC50/CC50 column pair (c7), beside the EC50 of c6.

The compound `Cc1ccc(/C=C/c2nnc(Cc3cccc(Br)c3)o2)c(C)c1` [Compound 200, 2-(3-bromobenzyl)-5-(2,4-dimethylstyryl)-1,3,4-oxadiazole] had a melting point of 74.2 °C. Further, the EC50 with B/Florida/04/2006 amounted to 10.2 µM. The EC50 in series [1] (H1N1, read-out: EC50) worked out at 11.7 µM. In addition, the EC50 with A/Perth/16/2009 (H3N2) (H3N2, read-out: EC50) is 11.9 µM. The compound also came in with a CC50 in “in vitro” (CC50, beside the EC50 of c2) of more than 50 µM. The same compound had a CC50 in “in vitro” (CC50, beside the EC50 of c4) of more than 50 µM. Besides, the CC50 in “in vitro” (setting [2]) was more than 50 µM.
`Brc1ccc(Cc2nnc(/C=C/c3ccccc3C3CCCCC3)o2)cc1` [Compound 111, 2-(4-bromobenzyl)-5-(2-cyclohexylstyryl)-1,3,4-oxadiazole] registered a melting point of 117.1 °C. In addition, the EC50 in the series on B/Florida/04/2006 is 41.3 µM. Also, in series [1] (H1N1, read-out: EC50), the EC50 was 31.8 µM. Besides, in the series on A/Perth/16/2009 (H3N2) (H3N2, read-out: EC50), the EC50 was found to be 34.3 µM. The CC50 in the series “in vitro” (CC50, beside the EC50 of c2) was determined as 32.5 µM. This compound yielded a CC50 in the series “in vitro” (CC50, beside the EC50 of c4) of more than 50 µM. Further, the CC50 in the series “in vitro” (setting [2]) is more than 50 µM.
In turn, `Clc1cc2c(cc1/C=C/c1nnc(Cc3ccc(Br)cc3)o1)OCO2` [Compound 162, 2-(4-bromobenzyl)-5-(2-(6-chlorobenzo[d][1,3]dioxol-5-yl)vinyl)-1,3,4-oxadiazole] displayed a melting point of 186.2 °C. In the series with B/Florida/04/2006, this compound returned an EC50 of more than 50 µM. In series [1] (H1N1, read-out: EC50), the EC50 was 30.5 µM. In addition, the EC50 with A/Perth/16/2009 (H3N2) (H3N2, read-out: EC50) was more than 50 µM. In addition, in the series “in vitro” (CC50, beside the EC50 of c2), the CC50 is more than 50 µM. The CC50 in “in vitro” (CC50, beside the EC50 of c4) is more than 50 µM. In “in vitro” (setting [2]), the CC50 is more than 50 µM.
Turning to `Fc1cccc(/C=C/c2nnc(Cc3cccc(Br)c3)o2)c1Cl` [Compound 194, 2-(3-bromobenzyl)-5-(2-chloro-3-fluorostyryl)-1,3,4-oxadiazole], the melting point worked out at 140.2 °C. Besides, the EC50 in the series with B/Florida/04/2006 came out at 1.53 µM. In addition, the EC50 in series [1] (H1N1, read-out: EC50) worked out at 1.31 µM. Further, the EC50 in the series on A/Perth/16/2009 (H3N2) (H3N2, read-out: EC50) came to 1.43 µM. The CC50 in the series “in vitro” (CC50, beside the EC50 of c2) worked out at 49.9 µM. Also, the CC50 in “in vitro” (CC50, beside the EC50 of c4) is more than 50 µM. Further, in “in vitro” (setting [2]), the CC50 is more than 50 µM.
The compound `Cc1ccccc1CCc1nnc(Nc2ccc(Br)c(F)c2)o1` [Compound 91, N-(4-bromo-3-fluorophenyl)-5-(2-methylphenethyl)-1,3,4-oxadiazol-2-amine] came in with a melting point of 151.6 °C. Besides, in the series with B/Florida/04/2006, the EC50 was 19.3 µM. Further, the EC50 in series [1] (H1N1, read-out: EC50) amounted to 9.13 µM. Besides, the EC50 in the series on A/Perth/16/2009 (H3N2) (H3N2, read-out: EC50) worked out at 8.3 µM. The compound further displayed a CC50 in “in vitro” (CC50, beside the EC50 of c2) of 6.03 µM. Besides, in “in vitro” (CC50, beside the EC50 of c4), the CC50 stood at 15.7 µM. In addition, in “in vitro” (setting [2]), the CC50 turned out to be 6.63 µM.
`Fc1ccc(/C=C/c2nnc(Cc3cccc(Br)c3)o2)cc1F` [Compound 191, 2-(3-bromobenzyl)-5-(3,4-difluorostyryl)-1,3,4-oxadiazole] displayed a melting point of 112.8 °C. For the same compound, the EC50 with B/Florida/04/2006 is 13.2 µM. Also, the EC50 in series [1] (H1N1, read-out: EC50) came out at 8.24 µM. The EC50 with A/Perth/16/2009 (H3N2) (H3N2, read-out: EC50) turned out to be 4.99 µM. In addition, in “in vitro” (CC50, beside the EC50 of c2), the CC50 is more than 50 µM. In the series “in vitro” (CC50, beside the EC50 of c4), this compound gave a CC50 of more than 50 µM. For the same compound, in “in vitro” (setting [2]), the CC50 is more than 50 µM.
In the case of `Cc1ccccc1/C=C/c1nnc(Cc2ccc(Br)cc2)o1` [Compound 170, 2-(4-bromobenzyl)-5-(2-methylstyryl)-1,3,4-oxadiazole], the melting point came out at 108.5 °C. In the series on B/Florida/04/2006, this compound had an EC50 of 2.05 µM. The EC50 in series [1] (H1N1, read-out: EC50) came to 2 µM. Moreover, the EC50 in the series on A/Perth/16/2009 (H3N2) (H3N2, read-out: EC50) is 2.04 µM. Moreover, the CC50 in “in vitro” (CC50, beside the EC50 of c2) came to 8.53 µM. In the series “in vitro” (CC50, beside the EC50 of c4), this compound showed a CC50 of 6.63 µM. In addition, in “in vitro” (setting [2]), the CC50 was 9.08 µM.
As for `Brc1ccc(Cc2nnc(/C=C/c3ccccc3Oc3ccccc3)o2)cc1` [Compound 127, (E)-2-(4-bromobenzyl)-5-(2-phenoxystyryl)-1,3,4-oxadiazole], the melting point worked out at 125.5 °C. In the series on B/Florida/04/2006, the EC50 was 16 µM. Also, in series [1] (H1N1, read-out: EC50), the EC50 is 34.9 µM. Further, in the series on A/Perth/16/2009 (H3N2) (H3N2, read-out: EC50), the EC50 was determined as 24.4 µM. Further, the CC50 in the series “in vitro” (CC50, beside the EC50 of c2) is more than 50 µM. The compound also showed a CC50 in “in vitro” (CC50, beside the EC50 of c4) of more than 50 µM. In “in vitro” (setting [2]), the CC50 was more than 50 µM.
`Fc1ccc(/C=C/c2nnc(Cc3cccc4ccccc34)o2)c(Cl)c1` [Compound 185, (E)-2-(2-chloro-4-fluorostyryl)-5-(naphthalen-1-ylmethyl)-1,3,4-oxadiazole] displayed a melting point of 152.7 °C. The compound also registered an EC50 with B/Florida/04/2006 of more than 50 µM. For the same compound, the EC50 in series [1] (H1N1, read-out: EC50) was more than 50 µM. For the same compound, in the series with A/Perth/16/2009 (H3N2) (H3N2, read-out: EC50), the EC50 is more than 50 µM. This compound had a CC50 in “in vitro” (CC50, beside the EC50 of c2) of more than 50 µM. Further, the CC50 in “in vitro” (CC50, beside the EC50 of c4) was more than 50 µM. Besides, the CC50 in “in vitro” (setting [2]) was more than 50 µM.
Take `Fc1ccc(/C=C/c2nnc(Cc3ccccc3)o2)c(Cl)c1` [Compound 158, (E)-2-benzyl-5-(2-chloro-4-fluorostyryl)-1,3,4-oxadiazole]: the melting point turned out to be 125.9 °C. This compound also yielded an EC50 with B/Florida/04/2006 of more than 50 µM. Also, in series [1] (H1N1, read-out: EC50), the EC50 was more than 50 µM. For the same compound, the EC50 in the series with A/Perth/16/2009 (H3N2) (H3N2, read-out: EC50) is more than 50 µM. Further, the CC50 in the series “in vitro” (CC50, beside the EC50 of c2) was more than 50 µM. This compound also had a CC50 in “in vitro” (CC50, beside the EC50 of c4) of more than 50 µM. The same compound returned a CC50 in the series “in vitro” (setting [2]) of more than 50 µM.
In the case of `Brc1ccc(Nc2nnc(/C=C/c3ccccc3C3CCCCC3)o2)cc1` [Compound 116, (E)-N-(4-bromophenyl)-5-(2-cyclohexylstyryl)-1,3,4-oxadiazol-2-amine], the melting point turned out to be 228.3 °C. The compound also showed an EC50 in the series with B/Florida/04/2006 of 34.5 µM. In addition, the EC50 in series [1] (H1N1, read-out: EC50) came out at 36.2 µM. Besides, the EC50 in the series with A/Perth/16/2009 (H3N2) (H3N2, read-out: EC50) was 35.1 µM. This compound displayed a CC50 in the series “in vitro” (CC50, beside the EC50 of c2) of more than 50 µM. The compound also gave a CC50 in the series “in vitro” (CC50, beside the EC50 of c4) of more than 50 µM.
`COc1ccccc1/C=C/c1nnc(Cc2ccc(Br)cc2)o1` [Compound 163, 2-(4-bromobenzyl)-5-(2-methoxystyryl)-1,3,4-oxadiazole]: the melting point worked out at 106.3 °C. Moreover, the EC50 with B/Florida/04/2006 was more than 50 µM. Also, the EC50 in series [1] (H1N1, read-out: EC50) was determined as 32.3 µM. The CC50 in “in vitro” (CC50, beside the EC50 of c2) was more than 50 µM. Besides, the CC50 in the series “in vitro” (CC50, beside the EC50 of c4) was more than 50 µM. Also, in the series “in vitro” (setting [2]), the CC50 is more than 50 µM.
On to `Cc1nn(Cc2nnc(SC(c3ccccc3)c3ccccc3)o2)c(C)c1Br` [Compound 25, 2-(benzhydrylthio)-5-((4-bromo-3,5-dimethyl-1H-pyrazol-1-yl)methyl)-1,3,4-oxadiazole], for which the EC50 with B/Florida/04/2006 (read-out: EC50 B/Florida/04/2006, B/Florida/04/2006) is 5.18 µM; in series [1] (H1N1, A/California/07/2009 (H1N1), read-out: EC50 A/California/07/2009 (H1N1)), 2.5 µM; in the series on A/Perth/16/2009 (H3N2) (H3N2, A/Perth/16/2009 (H3N2), read-out: EC50 A/Perth/16/2009 (H3N2)), 2 µM. Further, the CC50 in the series “in vitro” (CC50 B/Florida/04/2006, cytotoxicity in the B/Florida/04/2006 assay) amounted to 9.4 µM.
Turning to `Cc1ccccc1CC(C)c1nnc(Cc2ccc(Br)cc2)o1` (centres unmarked) [Compound 140, 2-(4-bromobenzyl)-5-(1-(o-tolyl)propan-2-yl)-1,3,4-oxadiazole], the EC50 with B/Florida/04/2006 is 14.1 µM; in series [1] (H1N1, read-out: EC50), 18.2 µM; with A/Perth/16/2009 (H3N2) (H3N2, read-out: EC50), 19.9 µM. Besides, the CC50 in the series “in vitro” (CC50, beside the EC50 of c2) is more than 50 µM; in “in vitro” (CC50, beside the EC50 of c4) it was more than 50 µM; in the series “in vitro” (setting [2]), more than 50 µM.
As to `CC(C)c1ccccc1OCc1nnc(Cc2ccccc2)o1` [Compound 114, 2-benzyl-5-((2-isopropylphenoxy)methyl)-1,3,4-oxadiazole], the EC50 turned out to be 12 µM with B/Florida/04/2006; 17.7 µM in series [1] (H1N1, read-out: EC50); 17.7 µM in the series on A/Perth/16/2009 (H3N2) (H3N2, read-out: EC50). Also, the CC50 in the series “in vitro” (CC50, beside the EC50 of c2) is 21.8 µM; in “in vitro” (CC50, beside the EC50 of c4), more than 50 µM; in the series “in vitro” (setting [2]), more than 50 µM.
Take `CC(C)c1ccccc1CCc1nnc(Cc2cccc(Cl)c2)o1` [Compound 102, 2-(3-chlorobenzyl)-5-(2-isopropylphenethyl)-1,3,4-oxadiazole]: the EC50 in the series on B/Florida/04/2006 was 2.14 µM; in series [1] (H1N1, read-out: EC50) it was 1.7 µM; in the series on A/Perth/16/2009 (H3N2) (H3N2, read-out: EC50), 1.5 µM. Besides, the CC50 in “in vitro” (CC50, beside the EC50 of c2) is 47.7 µM; in the series “in vitro” (CC50, beside the EC50 of c4), more than 50 µM; in the series “in vitro” (setting [2]), more than 50 µM.
In the case of `Brc1ccc(Cc2nnc(CCc3ccccc3-c3ccccc3)o2)cc1` [Compound 119, 2-(2-([1,1′-biphenyl]-2-yl)ethyl)-5-(4-bromobenzyl)-1,3,4-oxadiazole], the EC50 is more than 50 µM with B/Florida/04/2006; more than 50 µM in series [1] (H1N1, read-out: EC50); more than 50 µM in the series on A/Perth/16/2009 (H3N2) (H3N2, read-out: EC50). The CC50 was more than 50 µM in “in vitro” (CC50, beside the EC50 of c2); more than 50 µM in “in vitro” (CC50, beside the EC50 of c4); more than 50 µM in the series “in vitro” (setting [2]).
